By IC50 is commonly meant the midpoint of a concentration-inhibition curve.

Data on 4 compounds can be found in paper PMC11308014 (ACS Omega, 2024).

For this assay, the target named is T1, recombinant human dihydrofolate reductase (hDHFR) (Homo sapiens, UniProt P00374).
T1 construct: gene DHFR; commercial recombinant enzyme (R&D, Bio-Techne)
T1 sequence (P00374 1-187): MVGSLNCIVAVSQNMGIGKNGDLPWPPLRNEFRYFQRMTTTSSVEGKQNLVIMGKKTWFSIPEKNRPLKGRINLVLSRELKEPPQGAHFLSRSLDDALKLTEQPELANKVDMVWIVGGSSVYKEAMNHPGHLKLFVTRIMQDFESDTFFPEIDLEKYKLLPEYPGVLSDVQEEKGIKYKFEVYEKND
The experiment in a line: NADPH oxidation, absorbance at […] nm. The format is biochemical.

Turning to `CN(Cc1cnc2nc(N)nc(N)c2n1)c1ccc(C(=O)NCCCC(=O)O)cc1` [compound 4, 4], the IC50 was determined as 10 nM. The same measure for `CN(Cc1cnc2nc(N)nc(N)c2n1)c1ccc(C(=O)NCCCCCC(=O)O)cc1` [compound 5, 5]: 1210 nM; for `CN(Cc1cnc2nc(N)nc(N)c2n1)c1ccc(C(=O)NCCCCCCCC(=O)O)cc1` [compound 6, 6]: 1010 nM. Then `CN(Cc1cnc2nc(N)nc(N)c2n1)c1ccc(C(=O)NCCS(=O)(=O)O)cc1` [compound 7, 7], with 3030 nM.
